Consider 32 compounds from US5872210A (priority 1995, dated 1999).

Where a SMILES comes first, the peptide text is derived from it. Where no end group is shown, it is not given here. A value given as a limit tells only on which side of the number the result lay.

One data set addresses T1, HIV-1 protease (Human immunodeficiency virus type 1 group M subtype B, UniProt P04585). Description: HIV-1 protease hydrolysis of synthetic cleavage-site peptide substrates (RP-HPLC, Lineweaver-Burk). Format: biochemical. Particulars: Gag cleavage sites. The procedure:
[…] Reactions were terminated with 190 μl of a solution of 8M guanidine hydrochloride and 1% trifluroacetic acid (TFA) and subjected to reverse-phase high performance liquid chromotography ("RP-HPLC") on a C18 column. The substrate and cleavage products were separated with a linear gradient of 0 to 50% acetonitrile in water containing 0.05% TFA. The identity of the cleavage products was confirmed by electrospray mass spectroscopy. Peak areas were integrated using the Turbochrom 4 software (Perkin Elmer, San Jose, Calif.). Lineweaver-Burk analysis was used to determine kcat and Km.
For the compound ARVL*AEAM, the “kcat /Km” value was determined as 90000 M⁻¹ s⁻¹.
Turning to ATIM*MQRG, the “kcat /Km” value came to 74000 M⁻¹ s⁻¹.
As to PGNF*LQSR, the “kcat /Km” value was found to be 600 M⁻¹ s⁻¹.
As for RQAN*FLGK, the “kcat /Km” value came to 1600 M⁻¹ s⁻¹.
Take SQNY*PIVQ: the “kcat /Km” value came out at 45000 M⁻¹ s⁻¹.

The data set is the same for the next values; noted with them: Pol cleavage sites.
Take AETF*YVDG: the “kcat /Km” value stood at 10000 M⁻¹ s⁻¹.
As to “DLAFLQGK [DLAF*LQGK, Asp-Leu-Ala-Phe-Leu-Gln-Gly-Lys]”, the “kcat /Km” value is 1200 M⁻¹ s⁻¹.
As to “ERQANFLRED [ERQAN*FLRED, Glu-Arg-Gln-Ala-Asn-Phe-Leu-Arg-Glu-Asp]”, the “kcat /Km” value turned out to be 0.019 M⁻¹ s⁻¹.
On the same count and under the same terms, as for RKIL*FLDG, the figure is 200000 M⁻¹ s⁻¹; as for SFNF*PQIT, 7000 M⁻¹ s⁻¹; as for TLNF*PISP, 24000 M⁻¹ s⁻¹.

In a further data set the target is T1, HIV-1 protease. Description: biochemical. The note with it: 1M NaCl, 50 mM sodium formate, pH 4.0, 2.5 mM DTT, 25° C.
Turning to `CC(C)C[C@H](NC(=O)[C@@H](N)CC(=O)O)C(=O)N[C@@H](C)C(=O)N[C@@H](Cc1ccccc1)C(=O)O` [Peptide 6, Asp--Leu--Ala--Phe] (H-DLAF-OH), the Ki amounted to 3260 ± 390 µM.
Same read-out and setting: as for `N[C@@H](CCC(=O)O)C(=O)N[C@@H](CC(=O)O)C(=O)N[C@@H](Cc1ccccc1)C(=O)O` [Peptide 12, Glu--Asp--Phe] (H-Glu-Asp-Phe-OH), the figure is 410 ± 25 µM.

In a further data set the target is T1, HIV-1 protease. Description: biochemical.
Details: not given
As to the method: HIV-1 protease was obtained and its active site concentration was determined at 25° C. Purified enzyme was stored as a 5-8 μM stock solution in 50 mM NaOAc (pH 5.0), 1 mM DTT, 1 mM EDTA, 0.05% reduced Triton X-100 at -80° C. Porcine pepsin was prepared as 1-2 mg/ml in 50 mM formic acid (pH 3.0). The peptide concentrations were adjusted for their protein content.
HIV-1 protease activity was measured at 25° C. using substrate I (Lys-Ala-Arg-Val-Nle-Phe (NO2) -Glu-Ala-Nle-NH2 wherein Nle is norleucine and Phe (NO2) is 4-nitrophenylalamine). In a typical assay, 2.5 μl of enzyme was added to 97.5 μl of buffer and 2.5 mM DTT in the presence or absence of varying concentrations of inhibitor. The reaction was initiated by the addition of 10 μl of a 4 mM solution of substrate I in water and monitored by following the decrease in absorption at […] in a 100 μl spectrophotometric cell. Pepsin was assayed using substrate II (Phe-Gly-His-Phe(NO2)-Phe-Ala-PheOCH3). […] Concentrations of substrate solutions were determined spectrophotometrically at […].
The enzyme was assayed in the presence of the inhibitor in 50 mM sodium formate at pH 4.25 and 2.5 mM DTT. […] Peptides 12a and 12b were assayed at pH 4.4 and contained 0.083% and 0.02% DMSO, respectively.
`N[C@@H](CC(=O)O)C(=O)N[C@@H](CC(=O)O)C(=O)O` [Peptide 13, Asp--Asp] (H-Asp-Asp-OH) displayed a Ki of 970 ± 140 µM.
`N[C@@H](CCC(=O)O)C(=O)O` [Peptide 16, Glutamic acid, reference compound] yielded a Ki greater than 50000 µM.
Same read-out and setting: in the case of `N[C@@H](CC(=O)O)C(=O)O` [Peptide 17, Aspartic acid, reference compound] it was greater than 50000 µM; in that of “FLREDLAF [Peptide 1, Phe--Leu--Arg--Glu--Asp--Leu--Ala--Phe]”, 98 ± 10 µM.

Staying with this data set, now noted: 50 mM sodium formate pH 4.25, 2.5 mM DTT, substrate I 390 μM, 25° C.; peptides 1, 2, 4 from apparent Km vs [I], others from 1/V vs [I]; read-out: Ki.
Take Glu--Lys--Phe (EKF) [Peptide 11]: the Ki stood at 2010 ± 360 µM.

The data set is the same for the next values; noted with them: Ki, 50 mM sodium formate pH 4.25, 2.5 mM DTT, substrate I 390 μM, 25° C.; peptides 1, 2, 4 from apparent Km vs [I], others from 1/V vs [I].
As to `CC(C)C[C@H](NC(=O)[C@H](CC(=O)O)NC(=O)[C@@H](N)CCC(=O)O)C(=O)N[C@@H](C)C(=O)O` [Peptide 3, Glu--Asp--Leu--Ala] (H-EDLA-OH), the Ki came to 160 ± 20 µM.
As to `N=C(N)NCCC[C@H](N)C(=O)N[C@@H](CCC(=O)O)C(=O)N[C@@H](CC(=O)O)C(=O)O` [Peptide 5, Arg--Glu--Asp] (H-Arg-Glu-Asp-OH), the Ki is 3360 ± 400 µM.
On to `CC(C)C[C@H](NC(=O)[C@@H](N)CC(=O)O)C(=O)N[C@@H](C)C(=O)N[C@@H](Cc1ccccc1)C(=O)O` [Peptide 6, Asp--Leu--Ala--Phe] (H-DLAF-OH), for which the Ki is 270 ± 25 µM.
As for `CC(C)C[C@H](NC(=O)[C@H](CCC(=O)O)NC(=O)[C@@H](N)CC(=O)O)C(=O)O` [Peptide 7, Asp--Glu--Leu] (H-Asp-Glu-Leu-OH), the Ki turned out to be 230 ± 20 µM.
As for `CC(C)C[C@H](NC(=O)[C@H](CCC(=O)O)NC(=O)[C@@H](N)CCC(=O)O)C(=O)O` [Peptide 8, Glu--Glu--Leu] (H-Glu-Glu-Leu-OH), the Ki amounted to 310 ± 25 µM.
With `CC(C)C[C@H](NC(=O)[C@H](CC(=O)O)NC(=O)[C@@H](N)CC(=O)O)C(=O)O` [Peptide 9, Asp--Asp--Leu] (H-Asp-Asp-Leu-OH), the Ki worked out at 140 ± 6 µM.
As to `CC(C)C[C@H](NC(=O)[C@H](CC(N)=O)NC(=O)[C@@H](N)CCC(=O)O)C(=O)O` [Peptide 10, Glu--Asn--Leu] (H-Glu-Asn-Leu-OH), the Ki is 3070 ± 210 µM.
`N[C@@H](CCC(=O)O)C(=O)N[C@@H](CC(=O)O)C(=O)N[C@@H](Cc1ccccc1)C(=O)O` [Peptide 12, Glu--Asp--Phe] (H-Glu-Asp-Phe-OH): the Ki was found to be 25 ± 3 µM.
As to `N[C@@H](CC(=O)O)C(=O)N[C@@H](CCC(=O)O)C(=O)O` [Peptide 14, Asp--Glu] (H-Asp-Glu-OH), the Ki is 5400 ± 380 µM.
For the compound `NC(=O)CC[C@H](NC(=O)[C@@H](N)CC(=O)O)C(=O)O` [Peptide 15, Asp--Gln] (H-Asp-Gln-OH), the Ki was greater than 1000 µM.
In the case of “FLRQNLAF [Peptide 18, Phe--Leu--Arg--Gln--Asn--Leu--Ala--Phe]”, the Ki came out at 2000 µM.
For “GEDLAF [Peptide 2, Gly--Glu--Asp--Leu--Ala--Phe]”, the Ki amounted to 64 ± 13 µM.

Staying with this data set, now noted: Ki, NaCl 0 M; 50 mM sodium formate pH 4.25, 2.5 mM DTT; 1/V vs [I].
The compound `CC(C)C[C@H](NC(=O)[C@@H](N)CC(=O)O)C(=O)N[C@@H](C)C(=O)N[C@@H](Cc1ccccc1)C(=O)O` [Peptide 6, Asp--Leu--Ala--Phe] (H-DLAF-OH) showed a Ki of 270 ± 25 µM.
In the case of `N[C@@H](CCC(=O)O)C(=O)N[C@@H](CC(=O)O)C(=O)N[C@@H](Cc1ccccc1)C(=O)O` [Peptide 12, Glu--Asp--Phe] (H-Glu-Asp-Phe-OH), the Ki turned out to be 15 ± 2 µM.

Still in this data set, the particulars now being: Ki, NaCl 1 M; 50 mM sodium formate pH 4.25, 2.5 mM DTT; 1/V vs [I].
Turning to `CC(C)C[C@H](NC(=O)[C@@H](N)CC(=O)O)C(=O)N[C@@H](C)C(=O)N[C@@H](Cc1ccccc1)C(=O)O` [Peptide 6, Asp--Leu--Ala--Phe] (H-DLAF-OH), the Ki was determined as 3260 ± 390 µM.
For `N[C@@H](CCC(=O)O)C(=O)N[C@@H](CC(=O)O)C(=O)N[C@@H](Cc1ccccc1)C(=O)O` [Peptide 12, Glu--Asp--Phe] (H-Glu-Asp-Phe-OH), the Ki is 410 ± 25 µM.

The same data set, now with this note: Ki, pH 4.4; 0.083% (12a) and 0.02% (12b) DMSO; 1/V vs [I].
For `N[C@@H](CC(=O)O)C(=O)N[C@@H](CC(=O)O)C(=O)N[C@@H](Cc1ccccc1)C(=O)O` [Peptide 12a, Asp--Asp--Phe] (H-Asp-Asp-Phe-OH), the Ki stood at 43 ± 7 µM.
As to `N[C@@H](Cc1ccccc1)C(=O)N[C@@H](CC(=O)O)C(=O)N[C@@H](CC(=O)O)C(=O)N[C@@H](Cc1ccccc1)C(=O)O` [Peptide 12b, Phe--Asp--Asp--Phe] (H-FDDF-OH), the Ki was found to be 55 ± 14 µM.

A further data set has as its system mature HIV-1 protease. Put plainly: 50 mM sodium acetate, pH 5.0 or 100 mM sodium phosphate at pH 5.5 containing 1 mM DTT, 1 mM EDTA, 1M NaCl. The note with it: 37° C.
For the compound DLAFLQGK, the cleaved bond entry is “Phe-Leu”.
Take ERQANFLRED: the cleaved bond entry was “Asn-Phe”.
